Assay results as given in patent US10927155B2, “Dual inhibitory action peptidomimetic inhibitor for IL-33 and IL-1beta” (GEORGE MASON UNIVERSITY, priority 2015, dated 2021).
Bridge positions count the residues as written; N and C are the ends. Ends that are not written are not given here.

System: IL-1β/IL-1R1 dependent signaling
Assay: HEK-Blue IL-33/IL-1β reporter cells (SEAP) stimulated with IL-1β
Type: cell-based
Details: FIG. 15; for IL-1β/IL-1R1 dependent signaling (NF-κB and AP-1): HEK Blue reporter cells stimulated with IL-1
Excerpt: HEK-Blue™ IL-33/IL-1β cells were purchased from InvivoGen. These cells were transfected with a reporter gene, secreted embryonic alkaline phosphatase (SEAP), under the control of the IFN-β minimal promoter fused to five NF-κB and five AP-1 binding sites. In the presence of bioactive IL1β and/or IL33, HEK-Blue cells activate the NF-κB and AP-1 pathways triggering the production of SEAP. SEAP activity in cell supernatant is quantified using a colorimetric enzyme assay (QUANTI-Blue™, InvivoGen).
HEK Blue IL-33/IL-1β Reporter Cells. HEK-Blue™ IL-33/IL-1β Cells were purchased from InvivoGen. These cells were generated by transfection with a reporter gene, secreted embryonic alkaline phosphatase (SEAP), under the control of the IFN-β minimal promoter fused to five NF-κB and five AP-1 binding sites. In the presence of bioactive IL-1β and/or IL-33, HEK-Blue cells activated the NF-κB and AP-1 pathways triggering the production of SEAP. SEAP activity in cell supernatant was quantified using a colorimetric enzyme assay (QUANTI-Blue™, InvivoGen). HEK Blue cells were grown in DMEM, 4.5 g/l glucose, 2 mM L-Glutamine, 10% (v/v) heat-inactivated fetal bovine serum (30 min at 56° C.). After two passages, cells were exposed to selective medium (DMEM, 4.5 g/l glucose, 2 mM L-Glutamine, 10% heat-inactivated FBS (v/v) with of blasticidin (30 μg/ml), hygromycin B ([…]), and Zeocin™ ([…])). Cells were then plate in 96 well plates (10,000 cell per well) and stimulated with IL-1β (1 ng) and IL-33 (5 ng) in presence or absence of inhibitors.

| Substance | IL-1β/IL-1R1 dependent signaling (NF-κB and AP-1) | signaling activity of cytokine specificity controls (cytokine used instead of IL-1 as stimulus) |
| --- | --- | --- |
| TINESCSHSRTEDETRTQCLS [Cycl] | inhibit IL-1β/IL-1R1 dependent signaling |  |
| TINESISHSRTEDETRTQILS (Synthetic construct Arg286) | inhibit IL-1β/IL-1R1 dependent signaling |  |
| TINQSCSHSRTQNQTRTQCLS (disulfide 6-19 (inferred)) [RedAgg_Cycl, Arg286 peptide with glutamine replacements and two cysteines forming a disulfide bridge] | inhibit IL-1β/IL-1R1 dependent signaling |  |
| TINQSISHSRTQNQTRTQILS (Synthetic construct RedAgg) [Arg286 peptide with glutamic acid replaced by glutamine to reduce aggregation] | inhibit IL-1β/IL-1R1 dependent signaling |  |
| TNFα [reference compound] |  | no significant signaling activity |
